The test system of data set [1] is SU.86.86 cells. The experiment in a line: In vitro anti-proliferation (CellTiter-Glo, 72 hr), SU.86.86. It counts as cell-based. As for the experimental part:
(§1) Commercially available 8HQ and freshly synthesized G2-8HQ were prepared for in vitro anti-proliferative studies against the following cell lines with and without the presence of 10 μM Cu(+2): (1) A549: […]; (2) BT-549: epithelial cells from ductal tumor; (3) DU-145: human prostate cancer; (4) PANC-1: pancreatic cancer; (5) SU.86.86: a new adoptive pancreatic cell for immunotherapy studies; (6) RL: non-Hodgkin's lymphoma; (7) LnCAP, Prostate cancer cell line; (8) A431, a squamous cell carcinoma line; and (9) UACC-62 a malignant melanoma cell line.
(§2) With regard to the study protocol used, the objective was to conduct a study of the cytotoxicity of W1469 against several cancer cell lines. In the study protocol, preparations for the A549 (Lung) cell line screen are given as an example. The following materials were used: (1) FBS (2) RPMI-1640 medium supplemented with 10% FBS:’ and (3) A549 Cells. The four samples tested are referred to as Items 1-4 below and were placed at 4 °C upon arrival. These four samples were as follows: • Item 1: Tube A (W1469) (500 uM when FBS added) • Item 2: Tube B (W1469g) (1000 uM when FBS added) • Item 3: Tube C (W1469) • Item 4: Tube D (W1469g)
Add 50 μL of above 2× stocks to appropriate wells to expose appropriate cells to the final dilutions of samples. Add 50 μL media to media and cell control wells and 50 μL media mix to vehicle control wells. Cells are exposed for 72 hr. Following a 72 hr exposure to Sample, perform a CTG assay on all remaining plates.
At the end of the 72 hr exposure period, remove plates for CellTiter-Glo assay from 37 °C, 5% CO2 incubator and place on the bench at room temperature for 30 mins. Add 100 μL CellTiter-Glo reagent, mix for 2 mins, followed by a further 10 min incubation at room temperature. Record luminescence. Tables showing the resulting plate layouts are included below/
A general note: In ATP-based viability assays light output follows the ATP content of the culture.

For data set [2], the system named is ulcerative lesion to mid forehead. The experiment in a line: Case study, topical W1469, ulcerative lesion (Individual 3). It counts as in vivo, human. To be noted: Individual 3, twice daily, after one week. As for the experimental part:
(§3) Topical gel containing 0.5 mg/ml W1469 in proprietary aqueous alcohol gel, applied initially once daily using a suitable topical applicator.
(§4) In general, the Treatment/Patient protocol used for the patient testing was as follows: • 1. Photograph the application site prior to starting the protocol. Note any changes in lesion size, color, etc. of treatment area. • 2. Remove a loaded syringe from the freezer, dry ice or refrigerator and allow to gradually warm to room temperature. • 3. Photograph the syringe each time prior to application. Note the color of the gel contained in the syringe. • 4. Lightly clean the skin surface with alcohol wipe. • 5. […] Let the liquid from the gel absorb into the site without disturbing. Apply once a day at the same time. • 6. Re-cap the syringe and store in the refrigerator until completely used. • 7. Repeat 1-6 each daily during application period. It is noted in this protocol that photographing the syringe used with each application period accomplishes two things.
Physician administered, variable treatment protocol, drug concentrations and vehicle carrier. A person with ulcerative lesion to mid forehead approximately 3 mm×4 mm. […]. Non painful and without exudate. Therapy applied on a twice daily dosing schedule.

The subject of data set [3] is basal cell and squamous cell cancer. The experiment in a line: Case studies overview, topical W1469. It counts as in vivo, human. As for the experimental part: as §3, §4
• 1. Toleration/toxicity • 2. Application methodology • 3. Any visual indications of efficacy • 4. Patient feedback Study Duration: Varied case by case. Generally, two weeks to two months

In data set [4] the test system is A549 cells. In words: In vitro anti-proliferation (CellTiter-Glo, 72 hr), A549. It counts as cell-based, human. Here is the method:
as §1, §2
Items 1 and 2 are sterile ready for the addition of 1 ml of sterile FBS. Final concentrations after addition of 1 ml: 500 μM for Tube A and 1000 μM for Tube B. Items 3 and 4 are described further below. In the protocol, media containing 10% FBS and 20 μM CuCl2 are used in Tubes C and D only. A and B are serially diluted in media with 10% FBS and no added copper.
The protocol method proceeds as follows:
Seed 2, 96-well plates of A549 cells with 5,000 cells per well in a total volume of 50 μL per well. Leave overnight. See plate layout below for which wells to seed with 100 μL of media for media control. The following day, cells are exposed to compounds as described below.
For Items 1 & 2, to make the 500 μM and 1000 μM Stocks of samples 1 and 2 (W1469 and W1469g): Add 1 ml of sterile FBS to each Tube A and Tube B, swirl to mix.
To make appropriate 2× final dilutions of sample 1, Tube A (W1469), the following amounts are used: • 500 μM: 10 mL as supplied • 100 μM: 2 mL 500 μM Sample+8 mL media • 30 μM: 3 mL 100 μM Sample+7 mL media • 10 μM: 3 mL 30 μM Sample+6 mL media • 3 μM: 3 mL 10 μM Sample+7 mL media • 1 μM: 3 mL 3 μM Sample+6 mL media • 0.3 μM: 3 mL 1 μM Sample+7 mL media • 0.1 μM: 3 mL 0.3 μM Sample+6 mL media
To make appropriate 2× final dilutions of sample 2, Tube B (W1469g), the following amounts are used: • 1000 μM: 10 mL as supplied • 300 μM: 3 mL 1000 μM Sample+7 mL media • 100 μM: 3 mL 300 μM Sample+6 mL media • 30 μM: 3 mL 100 μM Sample+7 mL media • 10 μM: 3 mL 30 μM Sample+6 mL media • 3 μM: 3 mL 10 μM Sample+7 mL media • 1 μM: 3 mL 3 μM Sample+6 mL media • 0.3 μM: 3 mL 1 μM Sample+7 mL media
For Items 3 & 4, the following protocol was used to make 1000 uM Stocks of samples 3 and 4 (W1469 and W1469g): • 1: Dissolve 3.37 mg W1469 and excipient (Tube C) in 1 ml RPMI medium without added FBS and copper and swirl briefly until completely dissolved. Add 9 ml of RPMI media containing 10% FBS and 20 uM copper. Swirl to mix. Sterile filter the 10 ml with provided syringes and filters. This is now the 1000 μM stock solution W1469 ready for screening • 2: Dissolve 3.2 mg W1469g and excipient (Tube D) in 1 ml RPMI medium without added FBS and copper and swirl briefly until completely dissolved. […] This is now the 1000 μM stock solution W1469g ready for screening. […]

Where [5] appears, read: 1 and 0.5 μM, presence of Cu^+2 ions, wide standard deviation.

Entries after “also recorded” stand apart in the source; their conditions may differ. Where two headings read alike, the source gives them in different places.

For the molecule `O=C(O)[C@H]1O[C@@H](Oc2ccc3cccc(O)c3n2)[C@H](O)[C@@H](O)[C@@H]1O` [G2-8HQ, 8-Hydroxy-2-quinolinyl beta-D-glucopyranosiduronic acid], the cytotoxicity entry in data set [1] (setting [5]) was “in a percentage of cases, all of the cancer cells were killed at concentrations between at 1 and 0.5 μM; also recorded: in some % of the screens all the cancer cells were killed at these concentrations”. Moreover, in data set [1] (+Cu (10 μM), 72 hr, G2-8HQ values based on MW of apo form (337), read-out: IC50), the IC50 (in general, the concentration that gives 50% inhibition) stood at 13 µM. Also, the IC50 in data set [1] (Homo sapiens, SU.86.86, 72 h, +Cu (10 μM), 72 hr, G2-8HQ values based on MW of apo form (337), read-out: IC50) is 10 µM. Besides, the IC50 in data set [1] (Homo sapiens, SU.86.86, 72 h, −Cu, 72 hr, read-out: IC50) is above 500 µM. Besides, the IC50 in data set [1] (Homo sapiens, SU.86.86, complexed with Cu, multiplied by 337/776=0.43, column 3 duplicate of column 2, read-out: IC50 (adjusted to MW of copper complex)) came out at 4.3 µM. For the same molecule, in data set [1] (complexed with Cu, multiplied by 337/776=0.43, column 3 duplicate of column 2, listed as W1469, read-out: IC50 (adjusted to MW of copper complex)), the half-maximal inhibitory concentration (IC50) worked out at 5.6 µM. Also, in data set [2], the “erythema, exudate, or hyperkeratosis” value was “No erythema, exudate, or hyperkeratosis noted” and the ulcerative lesion result is listed as “resolution of ulcerative lesion”. For the same molecule, in data set [3] (all 4 case studies), the Side Effects result is on record as “No side effects were noted”, the “appearance of skin surrounding the cancer lesion(s)” value is “Marked improvements in general appearance of skin surrounding the cancer lesion(s)”, the cancer lesion size entry is “Progressive reduction of cancer lesion size” and the dose dependency result is recorded as “higher concentrations work better”. Further, in data set [3] (all 4 case studies), the “effect on adjacent tissue” value is recorded as “Doesn't inflame or injure adjacent tissue”; the “pain of treatment and application” value is “not painful”; the “time to rapid elimination of pain and visible inflammation” value lay in the range of 2 to 5 days. Also, the toxicity entry in data set [3] (topical gel 0.5 mg/ml, once daily initially) is “no toxicity was observed”. In addition, the cytotoxicity result in data set [4] (setting [5]) was “in some percentage of the screens all the cancer cells were killed at these concentrations”. Further, in data set [4] (A549, 10 or 20 μM Cu^+2 vs −Cu), the “improvement of cytotoxicity in presence of copper” value is 8-18 fold. In data set [4] (Homo sapiens, A549, 72 h, −Cu, 72 hr), this molecule gave an IC50 above 500 µM.
